In patent US8835428B2, “Diacylglycerol acyltransferase inhibitors” (Piramal Enterprises Limited, priority 2008, dated 2014):

Target: T1, hDGAT1 (Homo sapiens, UniProt O75907)
T1 construct: host or cells: Sf9 insect cells (baculovirus); microsomal preparation
T1 sequence (O75907 1-488): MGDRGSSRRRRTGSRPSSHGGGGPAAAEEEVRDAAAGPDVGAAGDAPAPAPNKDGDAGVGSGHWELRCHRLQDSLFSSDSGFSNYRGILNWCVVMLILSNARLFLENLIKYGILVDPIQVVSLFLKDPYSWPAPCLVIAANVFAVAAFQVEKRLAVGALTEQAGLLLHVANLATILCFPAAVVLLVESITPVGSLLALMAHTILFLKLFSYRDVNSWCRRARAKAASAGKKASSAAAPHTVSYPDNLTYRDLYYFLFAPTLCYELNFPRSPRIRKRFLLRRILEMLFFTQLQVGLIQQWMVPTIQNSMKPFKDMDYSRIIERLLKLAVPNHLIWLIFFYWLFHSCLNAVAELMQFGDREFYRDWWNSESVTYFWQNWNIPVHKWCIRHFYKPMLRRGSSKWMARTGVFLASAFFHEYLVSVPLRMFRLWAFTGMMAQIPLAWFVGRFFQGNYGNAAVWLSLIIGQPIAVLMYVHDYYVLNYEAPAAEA
Experiment: In-vitro DGAT1 assay (hDGAT1 microsomes from Sf9 cells, 14C oleoyl CoA, triglyceride formation)
Type: biochemical
Conditions: for inhibition at 1 µM / % inhibition of hDGAT1: At 1 μM
How it was run: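 Compounds tested in duplicate at 10, 5 and 1 μM for 10 min at 37 °C. Reaction: Sf9-expressed hDGAT1 microsomes (2.5–10 μg), [14C]oleoyl-CoA plus 409.5–1638 μM dioleoylglycerol, pH 7.4 Tris-HCl with fatty-acid-free BSA. Radiolabelled triglyceride extracted into heptane and scintillation-counted.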

Compound | inhibition at 1 µM [%] | inhibition at 10 µM [%] | also measured
CC(C)C(NC(=O)c1cc(-c2ccc(NC(=O)c3ccc(C(C)(C)C)cc3)cc2)no1)C(=O)O (stereo not shown) [Example 297, 2-(3-(4-(4-tert-butylbenzamido)phenyl)isoxazole-5-carboxamido)-3-methylbutanoic acid] | 75 to 100 |  | 
COC(=O)C1(NC(=O)c2cc(-c3ccc(NC(=O)Nc4ccc(F)cc4)cc3)no2)CCCC1 [Example 119, Methyl 1-(3-(4-(3-(4-fluorophenyl)ureido)phenyl)isoxazole-5-carboxamido)cyclopentanecarboxylate] |  | 50 to 75 | 
CC(C)[C@@H](NC(=NO)c1cc(-c2ccc(Nc3nc4ccc(F)cc4s3)cc2)no1)C(=O)O [Example 41, (R)-2-({3-[4-(6-Fluoro-benzothiazol-2-ylamino)-phenyl]-N-hydroxy-isoxazole-5-carboximidoyl}-amino)-3-methyl-butyric acid] |  | 0 to 50 | 
CC(C)[C@H](NC(=O)c1onc(-c2ccc(NC(=O)Nc3ccccc3)cc2)c1-c1ccccc1)C(=O)O [Example 89, (S)-3-Methyl-2-({4-phenyl-3-[4-(3-phenyl-ureido)-phenyl]-isoxazole-5-carbonyl}-amino)-butyric acid] |  | 0 to 50 | 
CC(C)[C@H](NC(=S)c1cc(-c2ccc(Nc3nc4ccc(F)cc4s3)cc2)no1)C(=O)O [Example 45, (S)-2-({3-[4-(6-Fluoro-benzothiazol-2-ylamino)-phenyl]-isoxazole-5-carbothioyl}-amino)-3-methyl-butyric acid] |  | 50 to 75 | 
CC(C)C(NC(=O)c1nc(-c2ccc(NC(=O)Nc3ccc(F)cc3F)cc2)no1)C(=O)O (stereo not shown) [Example 104, 2-(3-(4-(3-(2,4-difluorophenyl)ureido)phenyl)-1,2,4-oxadiazole-5-carboxamido)-3-methylbutanoic acid] |  | 75 to 100 | 
CC(C)[C@H](NC(=O)c1cc(-c2ccc(NC(=O)Nc3ccc(OC(F)(F)F)cc3)cc2)no1)C(=O)O [Example 187, (S)-3-methyl-2-(3-(4-(3-(4-(trifluoromethoxy)phenyl)ureido)phenyl)isoxazole-5-carboxamido)butanoic acid] | 75 to 100 |  | 
COC(=O)C(NC(=O)c1cc(-c2ccc(NC(=O)Nc3ccc(OC)cc3)cc2)no1)C(C)C (stereo not shown) [Example 127, Methyl 2-(3-(4-(3-(4-methoxyphenyl)ureido)phenyl)isoxazole-5-carboxamido)-3-methylbutanoate] |  | 0 to 50 | 
CC(C)[C@H](NC(=O)c1cc(-c2ccc(NC(=O)Nc3ccc(C(F)(F)F)cc3Cl)cc2)no1)C(=O)O [Example 232, (S)-2-(3-(4-(3-(2-Chloro-4-(trifluoromethyl)phenyl)ureido)phenyl)isoxazole-5-carboxamido)-3-methylbutanoic acid] | 75 to 100 |  | 
CCC(C)[C@H](NC(=O)c1cc(-c2ccc(NC(=O)Nc3ccccc3)cc2)no1)C(=O)O (stereo partly drawn) [Example 79, (S)-3-Methyl-2-({3-[4-(3-phenyl-ureido)-phenyl]-isoxazole-5-carbonyl}-amino)-pentanoic acid] |  | 75 to 100 | 
COC(=O)[C@H](NC(=S)c1cc(-c2ccc(NC(=O)Nc3ccccc3F)cc2)no1)C(C)C [Example 222, (R)-Methyl 2-(3-(4-(3-(2-fluorophenyl)ureido)phenyl)isoxazole-5-carbothioamido)-3-methylbutanoate] |  |  | inhibition at 5 µM: 50 to 75%
CC(C)C(NC(=O)c1cc(-c2ccc(Oc3nc4ccc(F)cc4s3)cc2)no1)C(=O)O (stereo not shown) [Example 335, 2-(3-(4-(6-fluorobenzo[d]thiazol-2-yloxy)phenyl)isoxazole-5-carboxamido)-3-methylbutanoic acid] | 0 to 50 |  | 
CCCCc1ccc(NC(=O)Nc2ccc(-c3cc(C(=O)NC(C(=O)O)C(C)C)on3)cc2)cc1 (stereo not shown) [Example 158, 2-(3-(4-(3-(4-butylphenyl)ureido)phenyl)isoxazole-5-carboxamido)-3-methylbutanoic acid] | 75 to 100 |  | 
O=C(Nc1ccc(-c2cc(C(=O)N[C@@H](CO)C(=O)O)on2)cc1)Nc1ccccc1F [Example 299, (S)-2-(3-(4-(3-(2-Fluorophenyl)ureido)phenyl)isoxazole-5-carboxamido)-3-hydroxypropanoic acid] |  |  | inhibition at 5 µM: 50 to 75%
CC(C)[C@H](NC(=O)c1cc(-c2ccc(NC(=O)Nc3ccc(Cl)cc3Oc3ccccc3)cc2)no1)C(=O)O [Example 201, (S)-2-(3-(4-(3-(4-Chloro-2-phenoxyphenyl)ureido)phenyl)isoxazole-5-carboxamido)-3-methylbutanoic acid] | 75 to 100 |  | 
COC[C@H](NC(=S)c1cc(-c2cccc(Nc3nc4ccc(F)cc4s3)c2)no1)C(=O)O [Example 31, (S)-2-({3-[3-(6-Fluoro-benzothiazol-2-ylamino)-phenyl]-isoxazole-5-carbothioyl}-amino)-3-methoxy-propionic acid] |  | 0 to 50 | 

Compound | inhibition at 1 µM [%] | inhibition at 10 µM [%] | also measured
CC(C)[C@@H](C(=O)O)N(C)C(=O)c1cc(-c2ccc(NC(=O)NC3CCCCC3)cc2)no1 [Example 312, (S)-2-(3-(4-(3-cyclohexylureido)phenyl)-N-methylisoxazole-5-carboxamido)-3-methylbutanoic acid] | 0 to 50 |  | 
COC(=O)[C@H](NC(=O)c1cc(-c2ccc(NS(=O)(=O)c3ccc(C(F)(F)F)cc3)cc2)no1)C(C)C [Example 318, (R)-methyl 3-methyl-2-(3-(4-(4-(trifluoromethyl)phenylsulfonamido)phenyl)isoxazole-5-carboxamido)butanoate] | 0 to 50 |  | 
Cc1ccc(NC(=O)Nc2ccc(-c3cc(C(=O)N[C@H](C(=O)O)C(C)C)on3)cc2)c(C)c1 [Example 171, (S)-2-(3-(4-(3-(2,4-dimethylphenyl)ureido)phenyl)isoxazole-5-carboxamido)-3-methylbutanoic acid] | 75 to 100 |  | 
COC(=O)[C@@H](NC(=O)c1cc(-c2ccc(NC(=O)Nc3ccc(F)cc3)cc2F)no1)C(C)C [Example 145, (S)-Methyl 2-(3-(2-fluoro-4-(3-(4-fluorophenyl)ureido)phenyl)isoxazole-5-carboxamido)-3-methylbutanoate] |  |  | inhibition at 5 µM: 50 to 75%
O=C(O)CCCNC(=O)c1cc(-c2ccc(NC(=O)Nc3ccccc3F)cc2)no1 [Example 254, 4-(3-(4-(3-(2-Fluorophenyl)ureido)phenyl)isoxazole-5-carboxamido) butanoic acid] |  |  | inhibition at 5 µM: 50 to 75%
CC(C)C(NC(=O)c1cc(-c2ccc(OCc3ccc(F)cc3F)cc2)no1)C(=O)O (stereo not shown) [Example 332] |  |  | % inhibition of hDGAT1: + (>0% Inhibition ≦50)
O=C(O)c1cc(-c2ccc(Nc3nc4ccc(F)cc4s3)cc2)no1 [Example 2, 3-[4-(6-Fluoro-benzothiazol-2-ylamino)-phenyl]-isoxazole-5-carboxylic acid] |  | 0 to 50 | 
CC(C)[C@@H](NC(=O)c1cc(-c2ccc(NS(=O)(=O)c3cc(F)cc(F)c3)cc2)no1)C(=O)O [Example 320, (R)-2-(3-(4-(3,5-Difluorophenylsulfonamido)phenyl)isoxazole-5-carboxamido)-3-methylbutanoic acid] | 0 to 50 |  | 
COC(=O)C(CC(C)C)NC(=O)c1cc(-c2ccc(NC(=O)Nc3ccc(F)cc3F)cc2)no1 (stereo not shown) [Example 113, Methyl 2-(3-(4-(3-(2,4-difluorophenyl)ureido)phenyl)isoxazole-5-carboxamido)-4-methylpentanoate] |  | 0 to 50 | 
COC(=O)C(NC(=O)c1cc(-c2ccc(NC(=O)Nc3ccccc3F)cc2C)no1)C(C)C (stereo not shown) [Example 135, Methyl 2-(3-(4-(3-(2-fluorophenyl)ureido)-2-methylphenyl)isoxazole-5-carboxamido)-3-methylbutanoate] |  |  | inhibition at 5 µM: 0 to 50%
2-(3-(4-(Benzyloxy)phenyl)isoxazole-5-carboxamido)-3-methylbutanoic acid [Example 324] |  |  | % inhibition of hDGAT1: + (>0% Inhibition ≦50)
COC(=O)[C@@H](NC(=O)c1cc(-c2ccc(Nc3nc4ccc(F)cc4s3)cc2)no1)C(C)C [Example 5, (S)-2-({3-[4-(6-Fluoro-benzothiazol-2-ylamino)-phenyl]-isoxazole-5-carbonyl}-amino)-3-methyl-butyric acid methyl ester] |  | 50 to 75 | 
COC(=O)[C@@H](NC(=NO)c1cc(-c2cccc(Nc3nc4ccc(F)cc4s3)c2)no1)C(C)C [Example 26, (S)-2-({3-[3-(6-Fluoro-benzothiazol-2-ylamino)-phenyl]-N-hydroxy-isoxazole-5-carboximidoyl}-amino)-3-methyl-butyric acid methyl ester] |  | 0 to 50 | 
CC(C)C(NC(=O)c1cc(-c2ccc(NC(=O)Nc3ccc(-c4cc(C(=O)NC(C(=O)O)C(C)C)on4)cc3)cc2)no1)C(=O)O (stereo not shown) [Example 282, 2-({3-[4-(3-{4-[5-(1-Carboxy-2-methyl-propylcarbamoyl)-isoxazol-3-yl]-phenyl}-ureido)-phenyl]-isoxazol-5-carbonyl}-amino)-3-methyl-butyric acid] |  |  | inhibition at 5 µM: 0 to 50%
COC(=O)[C@H](CC(C)C)NC(=O)c1cc(-c2ccc(Nc3nc4ccc(F)cc4s3)cc2)no1 [Example 46, (S)-2-({3-[4-(6-Fluoro-benzothiazol-2-ylamino)-phenyl]-isoxazole-5-carbonyl}-amino)-4-methyl-pentanoic acid methyl ester] |  | 0 to 50 | 
